Assay results published in US20240122932A1, “Methods of Treating B-Cell Malignancy Using Bcl-2 Inhibitor” (BeiGene Switzerland GmbH, priority 2021, published 2024).

How the values were obtained:
[1] = tested on: RS4;11 acute lymphoblastic leukemia (ALL) subcutaneous xenograft; experiment: RS4;11 ALL subcutaneous xenograft model; format: in vivo, NCG mice
Experimental: The RS4;11 cells are of acute lymphoblastic leukemia (ALL) origin and were obtained from American Type Culture Collection (ATCC CRL-1873, Manassas, VA, DC, USA). Cells were grown in RPM 1640 medium (Corning, Cat #10-040-CVR), supplemented with 10% (v/v) fetal bovine serum (Gibco, Cat #10099-141C), and 100 μg/mL of penicillin and streptomycin (Gibco, Cat #15140-122). RS4;11 cells were maintained as suspension cell cultures at 37° C. in a 5% CO2 atmosphere. Five to six-week-old female NCG mice were purchased from Gempharmatech of Information Technology Center. All animals were maintained under specific pathogen free (SPF) “full barrier” condition with free access to food and water. Mice were group-housed under a 12 h light:dark cycle (lights on at 08:00 h), at a temperature of 20-26° C. and 37-62% humidity in IVC cages (Lingyunboji (Beijing) Technology Co., Ltd.). Mice were fed with complete granulated feed with Co60 radiosterilization (Beijing Ke Ao Xie Li Feed Co., Ltd.).
(§1) On the day of implantation, RS4;11 cells were harvested and re-suspended with appropriate volume of ice cold DPBS and same volume of Matrigel (Corning, Cat #356237) to give a final concentration of 5×10^7 cells/mL. Re-suspended cells were placed on ice prior to inoculation. The right front flank region of each mouse was cleaned with 75% ethanol prior to cell inoculation. Each animal was injected subcutaneously with 1×10^7 cells in 200 μL of cell suspension in the right front flank via a 26-gauge needle. After implantation, primary tumor volume was measured in two dimensions using a caliper.
Animals were randomly assigned into 10 groups with 10 mice per group according to body weight and tumor volume (100 mm^3-200 mm^3). The groups consisted of vehicle group, 5, 15, 50 mg/kg of venetoclax with QD dosing, 5, 15, 50 mg/kg of Compound 1 with QD dosing, and 2.5, 7.5, 25 mg/kg of Compound 1 with BID dosing. Treatments were administered by oral gavage (p.o.) in a volume of 10 mL/kg body weight. Body weight was assessed immediately before dosing and volume dosed was adjusted accordingly.
(§2) Individual body weight was recorded twice weekly, with mice being monitored daily for clinical signs of toxicity for the duration of the study. Mice were euthanized using carbon dioxide when their tumor volume reached 2,000 mm^3, the tumor was ulcerated, or body weight loss exceeded 20%.
Tumor volume was calculated using the formula: V=0.5×(a×b^2) where a and b are the long and short diameters of the tumor, respectively.

[2] = tested on: Toledo diffuse large B cell lymphoma (DLBCL) subcutaneous xenograft; experiment: Toledo DLBCL subcutaneous xenograft model; format: in vivo, NCG mice
Experimental: Toledo cells are of diffuse large B cell lymphoma (DLBCL) origin and were obtained from American Type Culture Collection (ATCC CRL-2631, Manassas, VA, DC, USA). Cells were grown in RPMI 1640 medium (Corning. Cat #10-040-CVR), supplemented with 10% (v/v) fetal bovine serum (Gibco, Cat #10099-141C), and 100 μg/mL of penicillin and streptomycin (Gibco, Cat #15140-122). Toledo cells were maintained as suspension cell cultures at 37° C. in a 5% CO2 atmosphere. Five to six-week-old female NCG mice were purchased from Gempharmatech of Information Technology Center. All animals were maintained under specific pathogen free (SPF) “full barrier” condition with free access to food and water. Mice were group-housed under a 12 h light:dark cycle (lights on at 08:00 h), at a temperature of 21-26° C. and 35-61% humidity in IVC cages (Lingyunboji (Beijing) Technology Co., Ltd.). Mice were fed with complete granulated feed with Co60 radiosterilization (Beijing Ke Ao Xie Li Feed Co., Ltd.).
as §1, with “Toledo” for “RS4;11”, “1.5×10^7” for “5×10^7”, “3×10^6” for “1×10^7”
Transplanted animals were randomized into 10 groups with 10 mice per group on day 0 according to transplantation sequence and body weight. The groups consisted of vehicle group, 5, 15, 50 mg/kg of venetoclax with QD dosing, 5, 15, 50 mg/kg of Compound 1 with QD dosing, and 2.5, 7.5, 25 mg/kg of Compound 1 with BID dosing. Treatments were administered by oral gavage (p.o.) in a volume of 10 mL/kg body weight. Body weight was assessed immediately before dosing and volume dosed was adjusted accordingly.
as §2
Tumor volume was calculated using the formula: V=0.5×(a×b^2) where a and b are the long and short diameters of the tumor, respectively. Tumor growth inhibition (TGI) was calculated using the following formula: % TGI=100×[1−(treatedt−treatedt0)/(vehiclet−vehiclet0)] (treated t=treated tumor volume at time t, treated t0=treated tumor volume at time 0, vehicle t=vehicle tumor volume at time t and vehicle t0=vehicle tumor volume at time 0)

[3] = same total daily doses of 5 and 15 mg/kg

| Compound | Mean Tumor volume (Day 42) (mm^3 ± SEM) ([1]; 15 mg/kg QD × 42 p.o.) | Mean Tumor volume (Day 42) (mm^3 ± SEM) ([1]; 50 mg/kg QD × 42 p.o.) | Mean Tumor volume (Day 31) (mm^3 ± SEM) ([2]; 5 mg/kg QD × 31 p.o.) | TGI (Day 31) ([2]; 5 mg/kg QD × 31 p.o.) | Mean Tumor volume (Day 31) (mm^3 ± SEM) ([2]; 15 mg/kg QD × 31 p.o.) | TGI (Day 31) ([2]; 15 mg/kg QD × 31 p.o.) | Mean Tumor volume (Day 31) (mm^3 ± SEM) ([2]; 50 mg/kg QD × 31 p.o.) | TGI (Day 31) ([2]; 50 mg/kg QD × 31 p.o.) | other results |
| --- | --- | --- | --- | --- | --- | --- | --- | --- | --- |
| CC(C)c1ccccc1[C@@H]1CCCN1C1CC2(CCN(c3ccc(C(=O)NS(=O)(=O)c4ccc(NCC5CCC(C)(O)CC5)c([N+](=O)[O-])c4)c(Oc4cnc5[nH]ccc5c4)c3)CC2)C1 (stereo partly drawn) [Compound 1, 2-((1H-pyrrolo[2,3-b]pyridin-5-yl)oxy)-N-((4-((((1r,4r)-4-hydroxy-4-methylcyclohexyl)methyl)amino)-3-nitrophenyl)sulfonyl)-4-(2-((S)-2-(2-isopropylphenyl)pyrrolidin-1-yl)-7-azaspiro[3.5]nonan-7-yl)benzamide] | 312.6 ± 57.9 mm^3 | 141.8 ± 5.1 mm^3 | 679.3 ± 63.2 mm^3 | 60% | 267.4 ± 30.4 mm^3 | 84% | 214.8 ± 19.4 mm^3 | 87% | Mean Tumor volume (Day 42) (mm^3 ± SEM) ([1]; 2.5 mg/kg BID × 42 p.o.): 512.5 ± 115.9 mm^3; Mean Tumor volume (Day 42) (mm^3 ± SEM) ([1]; 5 mg/kg QD × 42 p.o.): 820.9 ± 140.2 mm^3; Mean Tumor volume (Day 42) (mm^3 ± SEM) ([1]; 7.5 mg/kg BID × 42 p.o.): 252.8 ± 48.3 mm^3; Mean Tumor volume (Day 42) (mm^3 ± SEM) ([1]; 25 mg/kg BID × 42 p.o.): 136.6 ± 2.2 mm^3; tumor growth inhibition (in words) ([1]; oral administration at well tolerated doses): potently and dose-dependently inhibited tumor growth; efficacy compared with venetoclax [1, 3]: significantly better efficacy when compared with venetoclax; Mean Tumor volume (Day 31) (mm^3 ± SEM) ([2]; 2.5 mg/kg BID × 31 p.o.): 515.7 ± 79.1 mm^3; TGI (Day 31) ([2]; 2.5 mg/kg BID × 31 p.o.): 70%; Mean Tumor volume (Day 31) (mm^3 ± SEM) ([2]; 7.5 mg/kg BID × 31 p.o.): 230.5 ± 25.9 mm^3; TGI (Day 31) ([2]; 7.5 mg/kg BID × 31 p.o.): 86%; Mean Tumor volume (Day 31) (mm^3 ± SEM) ([2]; 25 mg/kg BID × 31 p.o.): 182.5 ± 15.9 mm^3; TGI (Day 31) ([2]; 25 mg/kg BID × 31 p.o.): 89%; anti-tumor effects (in words) ([2]; 2.5, 7.5, 25 mg/kg BID or 5, 15, 50 mg/kg QD, oral): induced dose-dependent anti-tumor effects; efficacy compared with venetoclax [2, 3]: significantly better efficacy when compared with venetoclax |
| CC1(C)CCC(CN2CCN(c3ccc(C(=O)NS(=O)(=O)c4ccc(NCC5CCOCC5)c([N+](=O)[O-])c4)c(Oc4cnc5[nH]ccc5c4)c3)CC2)=C(c2ccc(Cl)cc2)C1 [Venetoclax, reference compound] | 1070.6 ± 181.1 mm^3 | 288.4 ± 37.8 mm^3 | 1256.5 ± 136.5 mm^3 | 26% | 847.8 ± 109.4 mm^3 | 50% | 258.3 ± 22.6 mm^3 | 85% | Mean Tumor volume (Day 42) (mm^3 ± SEM) ([1]; 5 mg/kg QD × 35 p.o.): >2000 mm^3 |
